No end group written: not given here.
Columns and labels:
human acinar cells = test: Total cholesterol content of human acinar cells (ex vivo pancreatitis models); format: cell-based
Protocol: (§1) FIGS. 8A-8M show derangement of cholesterol metabolism in experimental pancreatitis. Characteristics of cholesterol metabolism were measured, as detailed in FIGS. 4A-4R, in pancreas of WT mice subjected to pancreatitis induced with cerulein (CER-AP), L-arginine (Arg-AP), or CDE diet (CDE-AP) (A, B, and E-G); ex vivo pancreatitis induced in WT mouse (C and I-M) or human acinar cells (D) with 100 nM CCK (CCK-AP) or 1 mM carbachol; and isolated pancreatic mitochondria (H). (B) Cholesterol ester (CE) heatmap; each column represents an individual mouse. (F) IB analysis of the indicated proteins. (G) LAL activity was measured by a fluorogenic assay (n=6 mice per condition). (H) Cholesterol content was measured by enzymatic assay. (I-M) Filipin colocalization with indicated proteins was quantified as detailed in FIGS. 2A-2L. Each symbol in A, C-E, and H represents an individual mouse, or cell or mitochondria preparation (n=3-15 per condition). Each symbol in J, K, and M corresponds to 20-30 cells in a different field (n=10-20 fields from 3 cell preparations per condition). Values are mean±SEM. *P<0.05, **P<0.01, ***P<0.001 vs. the same parameter in control/untreated pancreas, acinar cells or isolated mitochondria. Significance was determined by 2-tailed Student's t test (B, E, H, J, K, and M) or 1-way ANOVA followed by Tukey's multiple comparison test (A, C, and D). Scale bars: 10 μm.
(§2) Parameters of cholesterol metabolism were measured in (A, B, E, F) pancreas of mice subjected to pancreatitis induced with cerulean (CER-AP), L-arginine (Arg-AP), or combination of EtOH+palmitoleic acid (EtOH+POA); and (C) ex-vivo models on mouse and human acinar cells treated for 1 h with 100 nM CCK, […] or 500 μM TLCS. In (A), each column in CE heatmap represents an individual mouse. (B, C) Total cholesterol content was measured with cholesterol assay kit (Abcam, ab65390). […] Each symbol corresponds to 20-30 cells in each of 8 high-expression (qPCR) of proteins regulating cholesterol synthesis (4 mice/group). (B-D) Each symbol represents an individual animal or cell preparation. (A-D, F) Values are mean±SE (*p<0.05, **p<0.01, ***p<0.001 vs saline or control). Signficance was determined by 2-tailed student's t test.
(§3) Ex vivo pancreatitis models were performed on mouse and human acinar cells, and human pancreas slices by incubation with supramaximal CCK (100 nM) or carbachol (1 mM), as described previously (80, 81).
Human pancreas slices were obtained as in (12), from portions of live normal human pancreata from pre-terminal donors that were not used for transplantation and diverted to research (provided by Trillium Gift of Life Network, Toronto, Ontario, year 2020) or from normal portions of pancreatic cancer operations. Pancreas was cut into ~3×3×3 mm pieces and embedded with 37° C. low melting 3.8% agarose gel in extracellular solution containing (mM): 125 NaCl, 2.5 KCl, 1 MgCl2, 2 CaCl2, 1.25 NaH2PO4, 26 NaHCO3, 2 sodium pyruvate, 0.25 ascorbic acid, 3 myo-inositol, 6 lactic acid, and 7 glucose, and placed on ice to solidify the gel. The gelled tissue blocks were sliced with Vibratome into 120 μm-thick slices; slices were washed with the same extracellular solution, placed in 199 medium containing 0.1 mg/mL soybean trypsin inhibitor, and treated with CCK-8 (CCK) or carbachol for ex-vivo pancreatitis.
Total cholesterol content was measured with Cholesterol Assay kit per manufacturer's instructions. […]

free cholesterol = test: Filipin colocalization with organelle markers in ex vivo CCK-AP; format: cell-based, mouse; settings: 100 nM CCK
Protocol: as §1, with “Each symbol in A, C-E, and H represents an individual mouse, or cell or mitochondria preparation (n=3-15 per condition). Each symbol in J, K, and M corresponds to 20-30 cells in a different field (n=10-20 fields from 3 cell preparations per condition). Values are mean±SEM. *P<0.05, **P<0.01, ***P<0.001 vs. the same parameter in control/untreated pancreas, acinar cells or isolated mitochondria.” left out, “Scale bars: 10 μm.” left out
All fluorescence images were acquired with a Zeiss LSM710 confocal microscope using x63 objective and preset within-experiment image acquisition settings. Quantitative fluorescence analysis was performed with Volocity software (PerkinElmer). Overlap between 2 fluorescent labels was measured using Manders-Costes coefficient. […]

mouse acinar cells = test: Total cholesterol content of mouse acinar cells (ex vivo pancreatitis models or cholesterol chelator); format: cell-based; set-up: total cholesterol in acinar cells, physiologic doses: dose or concentration left out as unconfirmed
Protocol: as §1, §2, §3
Total cholesterol content was measured with Cholesterol Assay kit per manufacturer's instructions. Samples of mouse pancreas and liver, cell pellet homogenates, subcellular fractions, isolated mitochondria, and serum were diluted in the reaction buffer containing cholesterol probe and incubated at 37° C. for 1 h in the dark. To measure total cholesterol, the samples were subjected to digestion with cholesterol esterase. To measure non-esterified cholesterol, the esterase was omitted from the assay.
Fluorescence intensity (for cholesterol) and absorbance (for TAG) were measured in a Tecan microplate reader. Each measurement was in duplicate, and the values were normalized per mg total protein in the sample.

[1] = ex-vivo pancreatitis, 1 h, 100 nM CCK, 1 mM carbachol or 500 μM TLCS
[2] = supramaximal (100 nM) CCK-8 or carbachol, ex vivo AP

CCK: hormone cholecystokinin-8 (CCK) (DYMGWMDF; ends and bridges not checked; UniProt P06307 96-103, looked up)
cholesterol overload, human acinar cells (human acinar cells; [1]): prominent | cholesterol content, human acinar cells, supramaximal stimulation (human acinar cells; [2]): increased | free cholesterol in Rab7-positive LE/Ly (free cholesterol): accumulation | plasma membrane free cholesterol (filipin colocalization with cadherin) (free cholesterol): markedly decreased | cholesterol overload, mouse acinar cells (mouse acinar cells; [1]): prominent | total cholesterol in acinar cells, physiologic doses (mouse acinar cells; physiologic doses of CCK or carbachol): did not alter | cholesterol content, mouse acinar cells, supramaximal stimulation (mouse acinar cells; [2]): increased
